The target in experiment [1] is T1, glucocerebrosidase (β-Glu), L444P/L444P (Homo sapiens, UniProt P04062, L483P).
T1 construct: endogenous in cells; host or cells: human Gaucher patient fibroblasts, genotype L444P/L444P
T1 sequence (P04062 40-536 L483P): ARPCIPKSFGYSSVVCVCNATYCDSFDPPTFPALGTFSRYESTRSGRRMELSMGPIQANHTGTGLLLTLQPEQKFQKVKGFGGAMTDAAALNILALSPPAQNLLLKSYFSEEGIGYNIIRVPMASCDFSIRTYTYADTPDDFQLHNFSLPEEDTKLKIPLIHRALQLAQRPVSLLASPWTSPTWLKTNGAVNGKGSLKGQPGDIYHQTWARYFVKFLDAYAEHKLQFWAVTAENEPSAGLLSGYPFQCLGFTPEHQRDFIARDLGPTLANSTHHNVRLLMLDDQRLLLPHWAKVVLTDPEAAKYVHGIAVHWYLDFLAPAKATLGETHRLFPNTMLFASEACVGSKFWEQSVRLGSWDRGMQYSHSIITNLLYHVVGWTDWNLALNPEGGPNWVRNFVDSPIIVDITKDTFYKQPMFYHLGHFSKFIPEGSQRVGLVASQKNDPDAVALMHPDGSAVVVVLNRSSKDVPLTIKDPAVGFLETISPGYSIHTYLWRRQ
Kind of experiment: Intracellular enhancement of β-Glu activity in Gaucher fibroblasts (L444P/L444P). The format is cell-based. As to conditions: 10 μM, 5 days.

For experiment [2], the target named is T2, human lysosomal α-Gal A (Homo sapiens, UniProt P06280).
T2 construct: made in house; host or cells: Sf-9 insect cells, recombinant baculovirus
T2 sequence (P06280 32-429): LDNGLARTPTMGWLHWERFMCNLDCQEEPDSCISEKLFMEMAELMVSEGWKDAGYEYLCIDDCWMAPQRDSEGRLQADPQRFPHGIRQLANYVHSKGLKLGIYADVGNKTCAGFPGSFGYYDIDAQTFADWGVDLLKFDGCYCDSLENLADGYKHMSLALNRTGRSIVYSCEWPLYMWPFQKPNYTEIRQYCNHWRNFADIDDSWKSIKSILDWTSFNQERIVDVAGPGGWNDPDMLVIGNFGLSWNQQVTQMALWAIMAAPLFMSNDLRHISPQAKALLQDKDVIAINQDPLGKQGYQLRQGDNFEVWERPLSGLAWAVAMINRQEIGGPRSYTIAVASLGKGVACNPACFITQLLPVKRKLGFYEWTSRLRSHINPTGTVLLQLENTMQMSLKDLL
Kind of experiment: In vitro inhibition of α-Gal A (recombinant, expressed in Sf-9 insect cells). The class given is biochemical.

The target of experiment [3] is coffee bean α-galactosidase (Coffea arabica, UniProt Q42656). The note with it: cited from earlier work.
coffee bean α-galactosidase, sequence (Q42656 16-378): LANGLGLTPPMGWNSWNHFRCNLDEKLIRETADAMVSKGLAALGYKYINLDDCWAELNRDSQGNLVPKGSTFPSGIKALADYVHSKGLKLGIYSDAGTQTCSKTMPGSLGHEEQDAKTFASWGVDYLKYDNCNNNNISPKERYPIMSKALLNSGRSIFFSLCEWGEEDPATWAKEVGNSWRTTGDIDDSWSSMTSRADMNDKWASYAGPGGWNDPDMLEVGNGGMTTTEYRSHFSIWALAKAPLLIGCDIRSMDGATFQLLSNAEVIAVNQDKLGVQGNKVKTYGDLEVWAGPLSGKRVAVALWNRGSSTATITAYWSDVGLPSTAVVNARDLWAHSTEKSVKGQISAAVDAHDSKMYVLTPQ
The target in experiment [4] is T3, mutant α-Gal A (R301Q) (Homo sapiens, UniProt P06280, R301Q).
T3 sequence (P06280 32-429 R301Q): T2 sequence (P06280 32-429) with R270Q
Kind of experiment: Intracellular enhancement of α-Gal A activity in Fabry lymphoblasts. The class given is cell-based. Also noted: endogenous in cells; host or cells: Epstein-Barr virus-transformed lymphoblasts from a Fabry patient (R301Q). The note with it: for intracellular α-Gal A activity in Fabry lymphoblasts (summary): concentration ranges of 10-1000 μM; for α-Gal A activity in R301Q lymphoblasts with increasing concentration of calystegine compound: range 100-1000 μM, FIG. 6. On the procedure: FIG. 4B depicts results in which each inhibitor was added to the culture medium of R301Q lymphoblasts at a concentration of 100 μM. Cells were subsequently incubated for 4 days. After being washed twice with phosphate-buffered saline, the intracellular enzyme activity was determined with 4-MU-α-Gal as the substrate.
R301Q lymphoblasts were cultured with DGJ (4) ([…]), α-allo-HNJ (9) (▪), α-galacto-HNJ (10) (▴), or β-1-C-butyl-DGJ (16) (♦) at 1-1000 μM for 4 days before being collected for enzyme assay.
In FIG. 6B, R301Q lymphoblasts were cultured with calystegine B2 (18) and the results are shown therein. In FIG. 6C, R301Q lymphoblasts were cultured with N-methyl calystegine A3 (19) and the results are shown therein. In FIG. 6D R301Q lymphoblasts were cultured with N-methyl calystegine B2 (20) at 100-1000 μM for 4 days before being collected for enzyme assay and the results are shown therein.
(§1) The Epstein-Barr virus-transformed lymphoblast lines from a normal adult and a Fabry patient with R301Q mutation in α-Gal A (38) were cultured in RPMI-1640 medium (Nissui Pharmaceutical Co., Tokyo, Japan) supplemented with 10% fetal calf serum (FCS) at 37° C. under 5% CO2. Human fibroblasts from Gaucher and GM1-gangliosidosis patients were cultured in McCoy 5A medium supplemented with 10% FCS at 37° C. under 5% CO2.
Cells were cultured in the presence or absence of inhibitor for 4 days. After being washed twice with phosphate-buffered saline (PBS), the cells were harvested and homogenized in 200 μl of H2O, and 10 μl of the supernatant obtained by centrifugation at 10,000 g was incubated at 37° C. with 50 μl of the substrate solution composed by 6 mM 4-methylumbelliferyl α-D-galactoside (4-MU-α-Gal) and 90 mM N-acetylgalactosamine in 0.1 M citrate buffer (pH 4.5) for enzyme assay. One unit of intracellular enzyme activity was defined as one nmol of 4-methylumbelliferone released per hour at 37° C.

The target in experiment [5] is human β-glucocerebrosidase (Homo sapiens, UniProt P04062). Kind of experiment: In vitro inhibition of human β-glucocerebrosidase. As to conditions: 0.1M citrate buffer (pH 5.2), 4-MU-β-Glu as substrate. The format is biochemical.
human β-glucocerebrosidase, sequence (P04062 40-536): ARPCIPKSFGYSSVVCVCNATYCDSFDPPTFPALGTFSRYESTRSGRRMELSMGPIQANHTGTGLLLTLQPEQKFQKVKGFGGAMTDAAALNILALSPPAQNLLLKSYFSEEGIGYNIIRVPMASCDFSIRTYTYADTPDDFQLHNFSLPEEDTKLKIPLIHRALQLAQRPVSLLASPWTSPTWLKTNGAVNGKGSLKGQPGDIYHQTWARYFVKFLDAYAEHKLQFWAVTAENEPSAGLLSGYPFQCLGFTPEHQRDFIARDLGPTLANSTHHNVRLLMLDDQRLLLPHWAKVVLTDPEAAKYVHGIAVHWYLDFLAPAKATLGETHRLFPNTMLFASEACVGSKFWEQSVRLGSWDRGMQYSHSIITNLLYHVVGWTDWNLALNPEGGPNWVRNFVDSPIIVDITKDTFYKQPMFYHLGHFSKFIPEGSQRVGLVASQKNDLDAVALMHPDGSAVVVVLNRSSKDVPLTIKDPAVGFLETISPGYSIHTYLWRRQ
The target in experiment [6] is T4, glucocerebrosidase (β-Glu), N370S/N370S (Homo sapiens, UniProt P04062, N409S).
T4 construct: endogenous in cells; host or cells: human Gaucher patient fibroblasts, genotype N370S/N370S
T4 sequence (P04062 40-536 N409S): T1 sequence (P04062 40-536 L483P) with N370S, P444L
Kind of experiment: Intracellular enhancement of β-Glu activity in Gaucher fibroblasts (N370S/N370S). The class given is cell-based. The note with it: concentration ranges of 0.05-100 μM.

Experiment [7] deals with lysosomal acid β-galactosidase (β-Gal). Kind of experiment: Intracellular enhancement of β-Gal activity in GM1-gangliosidosis fibroblasts. The class given is cell-based, human. On the procedure: In FIG. 7A, GM1-gangliosidosis fibroblasts were cultured with DGJ (4) at 500 μM for 5 days before being collected for enzyme assay. In FIG. 7B, GM1-gangliosidosis fibroblasts were cultured with 4-epi-isofagomine (21) at 50 μM for 5 days before being collected for enzyme assay. Strains BGF-1 and BGF-6 were diagnosed as infantile type, and all others were juvenile or adult types.
as §1
Cells were cultured in the presence or absence of inhibitor for 5 days. After being washed twice with PBS, the cells were harvested and homogenized in 200 μl of H2O, and 10 μl of the supernatant obtained by centrifugation at 10,000 g was incubated at 37° C. with 50 μl of the substrate solution of 1 mM 4-methylumbelliferyl β-D-galactoside (4-MU-β-Gal) in 0.1 M citrate buffer (pH 4.5) for enzyme assay. One unit of intracellular enzyme activity was defined as one nmol of 4-methylumbelliferone released per hour at 37° C.

Changes are numbered by the printed parent chain.

On to `O[C@@H]1C[C@]2(O)N[C@H]1C[C@@H](O)[C@@H]2O` [calystegine B1], for which, in experiment [1], the “increase of residual β-Glu activity in Gaucher fibroblasts” value (from here on “increase of residual β-Glu activity”) is recorded as 76%.

As for `O[C@@H]1[C@@H](O)[C@H](O)[C@]2(O)C[C@@H](O)[C@H]1N2` [calystegine C1], the “increase of residual β-Glu activity” value in experiment [1] is recorded as 136%.

On to `CCCCC1NC(CO)C(O)C(O)C1O` (stereo not drawn) [compound 16, β-1-C-Butyl-deoxygalactonojirimycin], for which the “inhibition mode toward α-Gal A (Lineweaver-Burk plots)” value in experiment [2] is “competitive inhibitors”. Moreover, the Ki in experiment [2] (p-nitrophenyl-α-D-galactopyranoside as substrate, read-out: Ki for α-Gal A, from the slope of Lineweaver-Burk plots) was 16 µM. Also, the IC50 in experiment [2] (read-out: IC30 and (Ki)*: IC50 values (inhibitor concentration giving 50% inhibition) for α-Gal A, p-nitrophenyl-α-D-galactopyranoside as substrate, pH 4.5) is 24 µM; in experiment [3], 0.71 µM. Moreover, the “intracellular α-Gal A activity in Fabry lymphoblasts (summary)” value (from here on “intracellular α-Gal A activity”) in experiment [4] is recorded as “effectively increase”. Also, the “increase of α-Gal A enzyme activity in R301Q lymphoblasts” value in experiment [4] (inhibitor at 100 μM, 4 days) was determined as 2.3 fold. For the same molecule, the “enhancement of α-Gal A activity in R301Q lymphoblasts” value in experiment [4] (inhibitor at 1000 μM, 4 days) stood at 6.3 fold.

`O[C@@H]1C[C@H]2CC[C@](O)(N2)[C@H]1O` [compound 17, Calystegine A3] registered an IC50 in experiment [5] of 3.1 µM. Moreover, the “intracellular β-Glu activity in Gaucher fibroblasts (summary)” value in experiment [6] is “effectively enhance”. Further, in experiment [1], the “increase of residual β-Glu activity” value came to 126%. Besides, the “intracellular α-Gal A activity” value in experiment [4] is given as “effectively increase”. For the same molecule, the “α-Gal A activity in R301Q lymphoblasts with increasing concentration of calystegine compound” value in experiment [4] (4 days) is reported as “elevated with increasing concentration”.

Molecule `O[C@@H]1[C@@H](O)[C@H](O)[C@]2(O)CC[C@H]1N2` [compound 18, calystegine B2] showed an IC50 in experiment [5] of 0.99 µM. For the same molecule, the “intracellular β-Glu activity in Gaucher fibroblasts (summary)” value in experiment [6] was “effectively enhance”. Besides, the “increase of residual β-Glu activity” value in experiment [1] was determined as 230%. In addition, the “intracellular α-Gal A activity” value in experiment [4] was “effectively increase”. Also, the “α-Gal A activity in R301Q lymphoblasts with increasing concentration of calystegine compound” value in experiment [4] (4 days) is listed as “elevated with increasing concentration”.

Molecule `CN1C2CCC1(O)C(O)C(O)C2O` (stereo not shown) [compound 20, N-methyl calystegine B2] yielded an IC50 in experiment [5] of 320 µM. The “intracellular α-Gal A activity” value in experiment [4] is on record as “effectively increase”. The “α-Gal A activity in R301Q lymphoblasts with increasing concentration of calystegine compound” value in experiment [4] (4 days) was “elevated with increasing concentration”.

In the case of `OC[C@H]1CNC[C@@H](O)[C@H]1O` [compound 21, 4-epi-isofagomine], the “β-Gal enhancement effect in fibroblasts of infant type disease (BGF-1 and BGF-6)” value in experiment [7] (DGJ 500 μM, 4-epi-isofagomine 50 μM, 5 days) is “not efficient”. Also, the “intracellular β-Gal activity in GM1-gangliosidosis fibroblasts (summary)” value in experiment [7] (concentration ranges of 50-500 μM) is “effectively enhance”. In experiment [7] (fibroblasts of juvenile and adult types, 5 days, FIG. 7B (50 μM)), the “intracellular β-Gal activity elevated to, % of normal” value is 9-53 % of normal.

For orientation: Ki means the equilibrium dissociation constant of an inhibitor or competing ligand from its target.

The record behind these values is patent publication US20150258129A1, “Method for Increasing the Activity of Lysosomal Enzymes” (Mount Sinai School of Medicine of New York University, priority 1998, published 2015).
